Measured values as given in US5403717A, “Diagnosis of premalignant or malignant conditions of human secretory epithelia” (Pacific Northwest Research, priority 1992, dated 1995).

What was measured:
[1] = molecular target: T1, β1→3N-acetylglucosaminyltransferase (Homo sapiens, UniProt Q9BYG0); experiment: β1→3N-acetylglucosaminyltransferase assay with Triton X-100 solubilized enzyme from SW403 cells; format: biochemical; conditions: for effect of removal from the reaction mixture on activity (in words): component removed from complete system; for β1-3N-acetylglucosaminyltransferase activity, named component omitted from complete system: component removed; for Effect of detergents on β1-3N-acetylglucosaminyltransferase activity: detergent added at 0.3% final concentration, 0.05% Triton X-100 present from enzyme, acceptor lactosylceramide; for fold less activity on substitution of Mn++: 10 mM final concentration, compared to Mn++; for β1-3N-acetylglucosaminyltransferase activity, Mn++ replaced by the named agent: plus agent at 10 mM final
T1 construct: solubilized from a 27,000 x g membrane pellet of SW403 cells by 0.2% Triton X-100; endogenous in cells; host or cells: SW403 cells (human colonic adenocarcinoma), 0.2% Triton X-100 soluble membrane fraction
T1 sequence (Q9BYG0 1-378): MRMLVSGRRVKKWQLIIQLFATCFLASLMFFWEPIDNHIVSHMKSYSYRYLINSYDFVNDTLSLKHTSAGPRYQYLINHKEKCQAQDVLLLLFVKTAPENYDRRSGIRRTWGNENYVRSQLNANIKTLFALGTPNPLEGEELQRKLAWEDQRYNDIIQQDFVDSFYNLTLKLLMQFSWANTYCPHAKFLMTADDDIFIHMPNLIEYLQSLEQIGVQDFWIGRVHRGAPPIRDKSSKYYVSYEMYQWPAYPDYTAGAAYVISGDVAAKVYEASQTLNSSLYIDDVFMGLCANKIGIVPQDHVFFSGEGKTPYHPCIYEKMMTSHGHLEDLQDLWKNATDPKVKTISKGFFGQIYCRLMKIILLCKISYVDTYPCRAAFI
Protocol: (§1) The labelled product was extracted into the lower phase of a Folch extraction (J. Biol. Chem., 191, 819-831), dried by an N2 stream, and dissolved in 20 μl of CHCl3 :CH3 OH (2:1). An aliquot, 10 μl was spotted on a HPTLC plate (Merck) and developed in a solvent composed of CHCl3 :CH3 OH:H2 O (60:35:8). The labelled glycolipids were located by autoradiography, scraped, and quantitated in a liquid scintillation counter.

[2] = tested on: β1→3N-acetylglucosaminyltransferase; experiment: as above; format: biochemical, human; conditions: for Substrate specificity of β1-3N-acetylglucosaminyltransferase: transfer of GlcNAc to acceptor: 40 ug of each acceptor, ND = none detected
Protocol: as §1

[3] = molecular target: T2, β1-3galactosyltransferase (Homo sapiens, UniProt Q9Y2C3); experiment: Effect of α-lactalbumin on β1-3galactosyltransferase of a 0.2% Triton X-100 soluble fraction from SW403 cells; format: biochemical; conditions: 30 μg acceptor, 0.2 mg solubilized protein
T2 construct: catalyzed by a 0.2% Triton X-100 soluble fraction from SW403 cells; endogenous in cells; host or cells: SW403 cells (human colonic adenocarcinoma), 0.2% Triton X-100 soluble fraction
T2 sequence (Q9Y2C3 1-310): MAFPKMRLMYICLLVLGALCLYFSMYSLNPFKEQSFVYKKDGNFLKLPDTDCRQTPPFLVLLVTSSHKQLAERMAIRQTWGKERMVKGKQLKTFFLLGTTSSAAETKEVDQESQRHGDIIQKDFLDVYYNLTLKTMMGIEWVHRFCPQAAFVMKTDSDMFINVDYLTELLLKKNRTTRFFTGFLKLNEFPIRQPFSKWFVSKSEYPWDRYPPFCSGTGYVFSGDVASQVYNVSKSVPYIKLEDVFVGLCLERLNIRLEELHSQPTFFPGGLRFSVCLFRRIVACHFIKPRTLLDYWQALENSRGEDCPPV
Protocol: The effect of increasing α-lactalbumin on the transfer of galactose to glucosylceramide, +--+, Lc3 forming nLc4, o--o, and Lc3 forming Lc4, x--x, catalyzed by a 0.2% Triton X-100 soluble fraction from SW403 cells is shown. The assays were conducted in the presence of 30 μg of the indicated acceptor and 0.2 mg of solubilized protein.
Synthesis of type 1 and 2 chain structures Lc4 and nLc4 are catalyzed by β1-3 and β1-4galactosyltransferases, respectively, competing for Lc3. A β1-4-galactosyltransferase responsible for transfer of Gal to Lc3 in human plasma was previously reported to be lactose synthetase A protein which was also involved in the synthesis of lactosylceramide (J. Biochem., 92, 1123-1127 (1982)). The effect of increasing α-lactalbumin on the β1-4galactosyltransferase activity in SW403 cells is seen with glucosylceramide and Lc3 as acceptors.
The reaction mixtures contained 2.5 μmol HEPES buffer, pH 7.0, 20 μg Lc3, 10 μg deoxycholate, 1 μmol MnCI2, 0.5 μmol CDPcholine, 0.5 μmol galactonolactone, 15 nmol UDP[^14 C]galactose (30,000 cpm/nmol), and 0.1 mg protein in a total volume of 0.1 ml. […] The incorporation of [^14 C]galactose into glycolipid was determined as described above.

C[N+](C)(C)CCOP(=O)(O)OP(=O)([O-])OC[C@H]1O[C@@H](n2ccc(N)nc2=O)[C@H](O)[C@@H]1O [CDPcholine]
effect of removal from the reaction mixture on activity (in words) [1]: significant loss of activity | β1-3N-acetylglucosaminyltransferase activity, named component omitted from complete system ([1]; complete system gives 76.0): 65.3 pmol/hr/mg protein

C[C@H](CCC(=O)NCCC[N+](C)(C)CC(O)CS(=O)(=O)[O-])[C@H]1CC[C@H]2[C@@H]3[C@H](O)C[C@@H]4C[C@H](O)CC[C@]4(C)[C@H]3C[C@H](O)[C@]12C (some centres unmarked) [CHAPSO]
Effect of detergents on β1-3N-acetylglucosaminyltransferase activity [1]: 54.5 pmol/hr/mg protein

[Ca+2] [Ca^++]
fold less activity on substitution of Mn++ [1]: 13 fold | β1-3N-acetylglucosaminyltransferase activity, Mn++ replaced by the named agent ([1]; complete system gives 76.0): 6.0 pmol/hr/mg protein

C[C@H](CCC(=O)O)[C@H]1CC[C@H]2[C@@H]3CC[C@@H]4C[C@H](O)CC[C@]4(C)[C@H]3C[C@H](O)[C@]12C [Deoxycholate]
Effect of detergents on β1-3N-acetylglucosaminyltransferase activity [1]: 67.5 pmol/hr/mg protein

CC(=O)N[C@H]1C(O)O[C@H](CO)[C@@H](O)[C@@H]1O (some centres unmarked) [GlcNAc]
β1-3N-acetylglucosaminyltransferase activity, GlcNAc added to complete system ([1]; GlcNAc 10 mM final, complete system gives 76.0): 80.3 pmol/hr/mg protein | effect on transfer of GlcNAc to lactosylceramide (in words) ([1]; agent at 10 mM final concentration (EDTA in place of Mn++; GlcNAc added)): only slight stimulation of the activity

[Mg+2] [Mg^++]
fold less activity on substitution of Mn++ [1]: 21 fold | β1-3N-acetylglucosaminyltransferase activity, Mn++ replaced by the named agent ([1]; complete system gives 76.0): 3.6 pmol/hr/mg protein

Lactotetraosylceramide [Lc4]
Substrate specificity of β1-3N-acetylglucosaminyltransferase: transfer of GlcNAc to acceptor [2]: 27 pmol/hr/mg protein | transfer of GlcNAc to acceptor (in words) ([2]; SW403 cell enzyme, lacto-series glycolipid acceptors): detectable but is much lower

Triton X-100
Effect of detergents on β1-3N-acetylglucosaminyltransferase activity [1]: 67.9 pmol/hr/mg protein

lactosylceramide
Substrate specificity of β1-3N-acetylglucosaminyltransferase: transfer of GlcNAc to acceptor [2]: 76 pmol/hr/mg protein | effect of removal from the reaction mixture on activity (in words) [1]: greatly diminished the activity | β1-3N-acetylglucosaminyltransferase activity, named component omitted from complete system ([1]; complete system gives 76.0): 8.3 pmol/hr/mg protein

B1: α-lactalbumin: protein modifier of lactose synthetase A protein (β1-4galactosyltransferase) (protein, UniProt P00709 20-142, looked up)
Alpha-lactalbumin: KQFTKCELSQLLKDIDGYGGIALPELICTMFHTSGYDTQAIVENNESTEYGLFQISNKLWCKSSQVPQSRNICDISCDKFLDDDITDDIMCAKKILDIKGIDYWLAHKALCTEKLEQWLCEKL
effect of α-lactalbumin on β1-3galactosyltransferase with Lc3 as acceptor (forming Lc4) [3]: Slight activation
